Our source for the GI50 and TGI values is PubChem BioAssay (NCI).

Each structure is given as a SMILES string.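 Assay format: 96-well plates, 48-hour exposure. GI50 is the concentration that inhibits growth by half. TGI denotes the concentration required for complete inhibition of growth.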

Some test systems named below: A498 renal; UACC-257 melanoma; TK-10 renal; T-47D breast; K-562 leukemia; U251 CNS; HT29 colon.
Common to all, as to assay: growth of human tumour cells (NCI), 48 h

Regarding `NCCN1CCN(c2nccc(-c3ccc4ccccc4c3)n2)CC1`, the GI50 is 1590 nM with A498 renal; 1860 nM with UACC-257 melanoma; 1.78 µM with TK-10 renal; 1880 nM in the assay with T-47D breast; 2090 nM with K-562 leukemia; 1850 nM in the assay on U251 CNS. Also, the GI50 in the assay on HT29 colon is 1.93 µM. Besides, the TGI in the assay on A498 renal was determined as 3.3 µM; in the assay on UACC-257 melanoma it was 3.41 µM; in the assay on TK-10 renal, 3.27 µM; in the assay on T-47D breast, 4.59 µM; with K-562 leukemia, 4.09 µM; in the assay with U251 CNS it was 3.52 µM. In the assay with HT29 colon, this compound displayed a TGI of 3.77 µM.
Turning to `CNC(=O)c1cc(Oc2ccc(NC(=O)Nc3ccc(Cl)c(OC(F)(F)F)c3)c(F)c2)ccn1`, the GI50 was 2660 nM with A498 renal; 1190 nM in the assay with UACC-257 melanoma; 2.44 µM in the assay with TK-10 renal; 814 nM in the assay with T-47D breast; 1220 nM with K-562 leukemia; 2320 nM in the assay on U251 CNS. Moreover, the GI50 in the assay with HT29 colon was 1.17 µM. Further, the TGI is 11.4 µM with A498 renal; 6.54 µM in the assay on UACC-257 melanoma; above 33.2 µM in the assay on TK-10 renal; 7.27 µM with T-47D breast; 8.22 µM in the assay on K-562 leukemia; 13.7 µM in the assay with U251 CNS. In the assay with HT29 colon, this compound registered a TGI of 13.5 µM.
As for `N#Cc1c(-c2ccccc2)nc2c(c(-c3ccccc3)nn2-c2ccccc2)c1-c1ccc(O)cc1`, the GI50 with A498 renal is 1660 nM; in the assay on UACC-257 melanoma, 3130 nM; in the assay with TK-10 renal, 2.89 µM; with T-47D breast, 3050 nM; in the assay on K-562 leukemia it was 2680 nM; with U251 CNS, 1630 nM. The GI50 with HT29 colon was 2.51 µM. For the same compound, the TGI in the assay with A498 renal was 3.07 µM; in the assay with UACC-257 melanoma, 12.1 µM; in the assay with TK-10 renal it was 8.19 µM; with T-47D breast, 23.8 µM; with K-562 leukemia it was above 100 µM; in the assay on U251 CNS it was 3.97 µM. Also, in the assay on HT29 colon, the TGI was found to be 6.44 µM.
Take `CNC(=O)c1ccc(-c2cnc3ncc(Cc4ccc5ncccc5c4)n3n2)cc1F`: the GI50 was above 100000 nM in the assay with A498 renal; above 100000 nM in the assay with UACC-257 melanoma; above 100 µM in the assay with TK-10 renal; above 100000 nM in the assay on T-47D breast; above 100000 nM in the assay on K-562 leukemia; 75100 nM with U251 CNS. The GI50 in the assay on HT29 colon is above 100 µM. Besides, the TGI with A498 renal, with UACC-257 melanoma, with TK-10 renal, in the assay on T-47D breast, in the assay on K-562 leukemia and in the assay on U251 CNS was above 100 µM each time. In addition, the TGI in the assay on HT29 colon is above 100 µM.
As to `CCCCCCNc1nc(NCCCCCC)c2[nH]c(NCCCCCC)nc2n1`, the GI50 was 1200 nM with A498 renal; 17000 nM in the assay with UACC-257 melanoma; 21.3 µM with TK-10 renal; 2420 nM with T-47D breast; 7020 nM in the assay with K-562 leukemia; 2180 nM in the assay on U251 CNS. In the assay with HT29 colon, the GI50 was 5.59 µM. Moreover, the TGI in the assay on A498 renal stood at 10.5 µM; in the assay with UACC-257 melanoma, 32.9 µM; in the assay on TK-10 renal it was 46.6 µM; with T-47D breast, 17.3 µM; with K-562 leukemia, 25.1 µM; in the assay on U251 CNS, 8.98 µM. In the assay with HT29 colon, the TGI stood at 18.8 µM.
On to `CN(C)CCNC(=O)Nc1c(C#N)[n+]([O-])c2cc(Cl)c(Cl)cc2[n+]1[O-]`, for which the GI50 is 51600 nM in the assay on A498 renal; 36500 nM in the assay on UACC-257 melanoma; 53.7 µM with TK-10 renal; 14600 nM in the assay with T-47D breast; 29300 nM in the assay with K-562 leukemia; 14500 nM in the assay with U251 CNS. The GI50 with HT29 colon was 27.3 µM. Further, the TGI with A498 renal, in the assay on UACC-257 melanoma, in the assay with TK-10 renal, in the assay on T-47D breast, in the assay on K-562 leukemia and with U251 CNS was above 100 µM each time. In the assay with HT29 colon, the TGI is above 100 µM.
`CCCCCC(=O)Oc1ccc(/C(=C(\C)c2ccc(OC)cc2)c2ccc(OCCN3CCCCC3)cc2)cc1`: the GI50 was 13500 nM in the assay with A498 renal; 2310 nM in the assay with UACC-257 melanoma; 17.5 µM in the assay on TK-10 renal; 2000 nM in the assay on T-47D breast; 3160 nM with K-562 leukemia; 5130 nM with U251 CNS. The GI50 in the assay on HT29 colon was 3.36 µM. The TGI stood at 26.5 µM in the assay on A498 renal; 5.83 µM with UACC-257 melanoma; 31.8 µM in the assay with TK-10 renal; 16.5 µM in the assay with T-47D breast; 16.2 µM in the assay on K-562 leukemia; 17.6 µM in the assay with U251 CNS. In the assay on HT29 colon, this compound registered a TGI of 13.4 µM.
Consider `COc1ccc(NC2=C(Br)C(=O)C(C)=C(C)C2=O)cc1`, for which the GI50 was 1620 nM in the assay on A498 renal; 1750 nM in the assay on UACC-257 melanoma; 25.2 µM in the assay on TK-10 renal; 1930 nM in the assay with T-47D breast; 2250 nM in the assay on K-562 leukemia; 1930 nM in the assay with U251 CNS. In the assay with HT29 colon, the GI50 was 27.4 µM. Also, the TGI in the assay on A498 renal is 33.6 µM; with UACC-257 melanoma, 3.37 µM; in the assay on TK-10 renal it was 40.9 µM; in the assay with T-47D breast, 4.81 µM; in the assay on K-562 leukemia, above 100 µM; with U251 CNS, 3.98 µM. Further, the TGI in the assay with HT29 colon amounted to 79.6 µM.
